Earlier results as cited in US20200129491A1, “METHODS OF TREATING BRAIN TUMORS USING COMBINATION THERAPY” (AGIOS PHARMACEUTICALS, INC., priority 2017, published 2020).
Where two headings read alike, the source gives them in different places.

What was measured:
mutant IDH1 proteins [1] = conditions: biochemical assays
mutant IDH1 proteins [2] = conditions: cellular assays
mIDH1 cells = conditions: in vitro, mIDH1 glioma models; R. J. Molenaar et al., Cancer Research 75:4790-4802 (2015)
mIDH1-driven gliomas = conditions: some model systems; D. Rohle et al. Science 340:626-630 (2013)

Row | SMILES | Inhibition of mutant IDH1 proteins (mutant IDH1 proteins [1]) | Inhibition of mutant IDH1 proteins (mutant IDH1 proteins [2]) | Sensitivity of mIDH1 cells to radiation therapy (mIDH1 cells) | Inhibition of mutant IDH1 (mIDH1) (mutant IDH1 (mIDH1)) | Growth of mIDH1-driven gliomas (mIDH1-driven gliomas)
1 | N#Cc1ccnc(N2C(=O)CC[C@H]2C(=O)N(c2cncc(F)c2)[C@H](C(=O)NC2CC(F)(F)C2)c2ccccc2Cl)c1 [Ivosidenib, (S)—N—((S)-1-(2-Chlorophenyl)-2-(3,3-difluorocyclobutylamino)-2-oxoethyl)-1-(4-cyanopyridin-2-yl)-N-(5-fluoropyridin-3-yl)-5-oxopyrrolidine-2-carboxamide] | inhibitor of mutant IDH1 proteins | inhibitor of mutant IDH1 proteins |  |  | 
2 | Cc1ccccc1C(C(=O)NC1CCCCC1)N(C(=O)Cn1ccnc1C)c1cccc(F)c1 (centres unmarked) [AGI-5198] |  |  | desensitized to radiation therapy | inhibit | repress growth
